# Results from patent publication US7326540B2, “Methods for identifying compounds that modulate stabilization of secretase-associated proteins” (priority 2003, dated 2008).
# System: BACE, PS1, nicastrin, Pen-2 and Aph1a mRNA
# Assay: Northern blot of BACE and γ-secretase complex component mRNA in H4-APP751 cells
# Assay type: cell-based, human
# Conditions: after 6 hours of STS treatment
# Protocol: FIG. 14 provides digitized images showing that transcription of BACE and γ-secretase complex components is decreased during apoptosis. Northern Blot analysis: H4-APP751 cells were treated with STS in serum free media. Total RNA was extracted using TRIZOL (Invitrogen). 20 μg of the resulting RNA were analyzed by Northern blot analysis performed as previously described (Koh, Y. H. et al., Faseb J 15, 1472-4 (2001)). Human cDNA of BACE, PS1 , nicastrin, Pen-2, Aph1a was labeled with [α-^32P]dCTP (PerkinElmer) using random hexanucleotide primers (Prime-a-gene labeling system; Promega). Ethidium staining of the gel (lower panel) confirmed equal RNA loading.
# We next asked whether apoptosis increases protein levels of BACE, PS1, nicastrin, Pen-2 and Aph1a via increased synthesis. […] We next asked whether BACE, PS1, nicastrin, Pen-2 and Aph1a protein levels are increased during apoptosis due to decreased degradation. […] In contrast, TACE, full-length APP, and APP-CTFs were not stabilized during apoptosis (FIG. 15a). Given that the components of the β-amyloidogenic secretases are stabilized during apoptosis while many other proteins are degraded (e.g. TACE, APP), the apparent increase of protein levels at the latest time points of the CHX+STS time course was most likely due to a relative increase of stabilized protein when normalized for the equal amounts of total protein.
structure (smiles),measurement,value
"CN[C@@H]1C[C@H]2O[C@@](C)([C@@H]1OC)n1c3ccccc3c3c4c(c5c6ccccc6n2c5c31)C(=O)NC4 [STS, staurosporine]","BACE, PS1, nicastrin, Pen-2 and Aph1a mRNA levels",virtually undetectable
